Values quoted from earlier work in patent US20110311631A1, “CONTROLLED RELEASE PHARMACEUTICAL COMPOSITION WITH RESISTANCE AGAINST THE INFLUENCE OF ETHANOL EMPLOYING A COATING COMPRISING A POLYMER MIXTURE AND EXCIPIENTS” (EVONIK RÖHM GMBH, priority 2009, published 2011).
Structures can show the parent of a compound that is named as a salt. Where two headings read alike, the source gives them in different places.

Conditions: USP classification, between 15° C. and 25° C.

| Compound | Solubility in ethanol | Solubility in water | Solubility in ethanol (listed as metoprolol) | Solubility in ethanol (listed as theophyllin) | Solubility in ethanol (listed as naloxone) | Solubility in ethanol (HCl) | Solubility in ethanol (listed as diltiazem, HCl) |
| --- | --- | --- | --- | --- | --- | --- | --- |
| COCCc1ccc(OCC(O)CNC(C)C)cc1 (centres unmarked) [Metoprolol succinate] | Sparingly soluble (more than 30 to 100) | Freely soluble (from 1 to 10) | sparingly soluble |  |  |  |  |
| Cn1c(=O)c2[nH]cnc2n(C)c1=O [Theophylline] | Sparingly soluble (more than 30 to 100) | Slightly soluble (more than 100 to 1000) |  | sparingly soluble |  |  |  |
| C=CCN1CC[C@]23c4c5ccc(O)c4O[C@H]2C(=O)CC[C@@]3(O)[C@H]1C5 [Naloxone] | Slightly soluble (more than 100 to 1000) | Soluble (more than 10 to 30) |  |  | slightly soluble |  |  |
| NC(=O)N1c2ccccc2C=Cc2ccccc21 [Carbamazepine] | Soluble (more than 10 to 30) | Practically insoluble (more than 10.000) |  |  |  |  |  |
| COc1ccc([C@@H]2Sc3ccccc3N(CCN(C)C)C(=O)[C@@H]2OC(C)=O)cc1 [Diltiazem HCl] |  | Freely soluble (from 1 to 10) |  |  |  | Sparingly soluble (more than 30 to 100) | sparingly soluble |
